Like-named read-outs stand apart in the source and are kept apart here. Starred links: 1 amine or outer side, 2 acyl side, 3 side chain; linkers in the order of their positions; H or OH if unused. Non-standard residues stand in square brackets, D forms with d. Residues, ends and D or L forms follow the SMILES beside them. Groups on a side chain read outwards from the residue. *: point of attachment. C20 diacid = O=C(O)CCCCCCCCCCCCCCCCCCC(=O)*; γGlu = O=C(O)[C@H](CCC(=O)[*:2])N[*:1]; Hyp = O=C(O)[C@@H]1C[C@@H](O)CN1; Nle = CCCC[C@H](N)C(=O)O; AEEA = NCCOCCOCC(=O)O
Key:
hCRHR2 = target: T1, hCRHR2 (Homo sapiens, UniProt Q13324); test: HTRF cAMP assay, determination of hCRHR2 potency (peptide libraries 5 conc., purified peptides 11 conc.); format: cell-based
T1 sequence (Q13324 1-411): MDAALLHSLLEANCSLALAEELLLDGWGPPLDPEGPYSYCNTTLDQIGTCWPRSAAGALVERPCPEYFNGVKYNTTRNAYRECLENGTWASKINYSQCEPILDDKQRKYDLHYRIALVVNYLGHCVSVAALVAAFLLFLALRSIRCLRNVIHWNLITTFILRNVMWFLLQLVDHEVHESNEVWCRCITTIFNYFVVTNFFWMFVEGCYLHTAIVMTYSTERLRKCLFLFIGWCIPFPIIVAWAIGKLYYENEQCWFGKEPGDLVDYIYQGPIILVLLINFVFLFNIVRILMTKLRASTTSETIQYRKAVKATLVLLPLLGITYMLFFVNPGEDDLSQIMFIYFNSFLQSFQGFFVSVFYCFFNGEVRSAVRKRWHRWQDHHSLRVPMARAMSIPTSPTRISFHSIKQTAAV
Summary of the method: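 Cells: CHO-K1/hCRHR2 stable clone, suspension, freshly thawed. Readout: competitive TR-FRET, anti-cAMP cryptate vs cAMP-d2. Analysis: sigmoid variable-slope nonlinear regression → EC50.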

hCRHR1 = target: T2, hCRHR1 (Homo sapiens, UniProt P34998); test: HTRF cAMP assay, determination of hCRHR1 potency (peptide libraries 5 conc., purified peptides 11 conc.); format: cell-based
T2 sequence (P34998 24-415): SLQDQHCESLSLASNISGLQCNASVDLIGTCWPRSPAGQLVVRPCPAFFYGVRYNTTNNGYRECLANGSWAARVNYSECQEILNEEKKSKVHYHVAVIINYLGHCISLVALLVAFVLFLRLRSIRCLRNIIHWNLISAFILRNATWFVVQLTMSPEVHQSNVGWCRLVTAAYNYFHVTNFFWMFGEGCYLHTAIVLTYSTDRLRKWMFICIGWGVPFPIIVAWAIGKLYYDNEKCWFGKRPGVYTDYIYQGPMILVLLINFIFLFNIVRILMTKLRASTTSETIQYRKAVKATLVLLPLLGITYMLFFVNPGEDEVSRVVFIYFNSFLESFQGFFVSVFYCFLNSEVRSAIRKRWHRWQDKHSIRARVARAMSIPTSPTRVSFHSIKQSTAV
Summary of the method: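 Cellular cAMP was read by time-resolved FRET between d2-labelled cAMP and cryptate anti-cAMP antibody. The cells were freshly thawed suspension CHO-K1 cells stably expressing human CRHR1.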

[1] = Table 3, matched molecular pairs X^38 L vs Nle, peptide library of Example 4, read-out: hCRHR2 pEC50 (converted)
[2] = Table 3, matched molecular pairs X^38 L vs Nle, peptide library of Example 4, read-out: hCRHR1 pEC50 (converted)
[3] = library peptides, matched molecular pairs L vs Nle in position X^38, read-out: Potency hCRHR2 pEC50 (converted)
[4] = library peptides, matched molecular pairs L vs Nle in position X^38, read-out: Potency hCRHR1 pEC50 (converted)

| SMILES | EC50 (hCRHR2; [1]) [nM] | EC50 (hCRHR1; [2]) [nM] | Selectivity ratio (hCRHR1/ hCRHR2) (hCRHR2; Table 5) | EC50 (hCRHR2; Table 5, purified peptides, read-out: hCRHR2 EC50) [nM] | EC50 (hCRHR2; [3]) [nM] | EC50 (hCRHR1; [4]) [nM] |
| --- | --- | --- | --- | --- | --- | --- |
| CCCC[C@H](NC(=O)[C@@H](NC(=O)[C@H](CCC(=O)O)NC(=O)[C@H](C)NC(=O)[C@H](CC(N)=O)NC(=O)[C@@H](NC(=O)[C@H](CCCCNC(=O)COCCOCCNC(=O)COCCOCCNC(=O)CC[C@H](NC(=O)CC[C@H](NC(=O)CCCCCCCCCCCCCCCCCCC(=O)O)C(=O)O)C(=O)O)NC(=O)[C@H](C)NC(=O)[C@H](CCCNC(=N)N)NC(=O)[C@H](CCC(=O)O)NC(=O)[C@H](CCCNC(=N)N)NC(=O)[C@H](C)NC(=O)[C@H](CO)NC(=O)[C@H](CCC(=O)O)NC(=O)[C@H](C)NC(=O)[C@H](CCCNC(=N)N)NC(=O)[C@H](C)NC(=O)[C@H](CCC(N)=O)NC(=O)[C@H](CCC(=O)O)NC(=O)[C@H](CC(C)C)NC(=O)[C@H](CC(C)C)NC(=O)[C@@H](NC(=O)[C@H](CCC(N)=O)NC(=O)[C@H](CC(C)C)NC(=O)[C@H](CC(C)C)NC(=O)CNC(=O)[C@@H](NC(=O)[C@@H]1CCCN1C(=O)[C@@H](NC(=O)[C@H](CC(=O)O)NC(=O)[C@H](CC(C)C)NC(=O)[C@H](CO)NC(=O)[C@H](CC(C)C)NC(=O)[C@@H](NC(=O)[C@@H](N)[C@@H](C)CC)C(C)C)C(C)C)[C@@H](C)CC)[C@@H](C)CC)[C@@H](C)O)[C@@H](C)CC)C(=O)N[C@@H](C)C(=O)N[C@@H](CCC(=O)O)C(=O)N[C@H](C(N)=O)[C@@H](C)CC [SEQ ID NO: 22] (H-IVLSLDVPIGLLQILLEQARAESARERAK([AEEA-AEEA-γGlu-γGlu-C20 diacid])TNAEI[Nle]AEI-NH2) | 0.158 | 5010 | – | – | – | – |
| CCCC[C@H](NC(=O)[C@@H](NC(=O)[C@H](CCC(=O)O)NC(=O)[C@H](C)NC(=O)[C@H](CC(N)=O)NC(=O)[C@@H](NC(=O)[C@H](CCCCNC(=O)COCCOCCNC(=O)COCCOCCNC(=O)CC[C@H](NC(=O)CC[C@H](NC(=O)CCCCCCCCCCCCCCCCCCC(=O)O)C(=O)O)C(=O)O)NC(=O)[C@H](C)NC(=O)[C@H](CCC(N)=O)NC(=O)[C@H](CCC(=O)O)NC(=O)[C@H](CCCNC(=N)N)NC(=O)[C@H](C)NC(=O)[C@H](C)NC(=O)[C@H](CCCNC(=N)N)NC(=O)[C@H](C)NC(=O)[C@H](CCCNC(=N)N)NC(=O)[C@H](C)NC(=O)[C@H](CCC(N)=O)NC(=O)[C@H](CCC(=O)O)NC(=O)[C@H](CC(C)C)NC(=O)[C@H](CC(C)C)NC(=O)[C@@H](NC(=O)[C@H](CCC(N)=O)NC(=O)[C@H](CC(C)C)NC(=O)[C@H](CC(C)C)NC(=O)CNC(=O)[C@@H](NC(=O)[C@@H]1CCCN1C(=O)[C@@H](NC(=O)[C@H](CC(=O)O)NC(=O)[C@H](CC(C)C)NC(=O)[C@H](CO)NC(=O)[C@H](CC(C)C)NC(=O)[C@@H](NC(=O)[C@@H](N)[C@@H](C)CC)C(C)C)C(C)C)[C@@H](C)CC)[C@@H](C)CC)[C@@H](C)O)[C@@H](C)CC)C(=O)N[C@@H](C)C(=O)N[C@@H](CCC(=O)O)C(=O)N[C@H](C(N)=O)C(C)C [SEQ ID NO: 45] (H-IVLSLDVPIGLLQILLEQARARAAREQAK([AEEA-AEEA-γGlu-γGlu-C20 diacid])TNAEI[Nle]AEV-NH2) | 0.251 | 200 | 107 | 0.52 | – | – |
| CCCC[C@H](NC(=O)[C@@H](NC(=O)[C@H](CCC(=O)O)NC(=O)[C@H](C)NC(=O)[C@H](CC(N)=O)NC(=O)[C@@H](NC(=O)[C@H](CCCCNC(=O)COCCOCCNC(=O)COCCOCCNC(=O)CC[C@H](NC(=O)CC[C@H](NC(=O)CCCCCCCCCCCCCCCCCCC(=O)O)C(=O)O)C(=O)O)NC(=O)[C@H](C)NC(=O)[C@H](CCC(N)=O)NC(=O)[C@H](CCC(=O)O)NC(=O)[C@H](CCCNC(=N)N)NC(=O)[C@H](C)NC(=O)[C@H](C)NC(=O)[C@H](CCC(N)=O)NC(=O)[C@H](C)NC(=O)[C@H](CCCNC(=N)N)NC(=O)[C@H](C)NC(=O)[C@H](CCC(N)=O)NC(=O)[C@H](CCC(=O)O)NC(=O)[C@H](CC(C)C)NC(=O)[C@H](CC(C)C)NC(=O)[C@@H](NC(=O)[C@H](CCC(N)=O)NC(=O)[C@H](CC(C)C)NC(=O)[C@H](CC(C)C)NC(=O)CNC(=O)[C@@H](NC(=O)[C@@H]1CCCN1C(=O)[C@@H](NC(=O)[C@H](CC(=O)O)NC(=O)[C@H](CC(C)C)NC(=O)[C@H](CO)NC(=O)[C@H](CC(C)C)NC(=O)[C@@H](NC(=O)[C@@H](N)[C@@H](C)CC)C(C)C)C(C)C)[C@@H](C)CC)[C@@H](C)CC)[C@@H](C)O)[C@@H](C)CC)C(=O)N[C@@H](C)C(=O)N[C@@H](CCC(=O)O)C(=O)N[C@H](C(N)=O)[C@@H](C)CC [SEQ ID NO: 44] (H-IVLSLDVPIGLLQILLEQARAQAAREQAK([AEEA-AEEA-γGlu-γGlu-C20 diacid])TNAEI[Nle]AEI-NH2) | 0.1 | 1260 | – | – | – | – |
| CCCC[C@H](NC(=O)[C@@H](NC(=O)[C@H](CCC(=O)O)NC(=O)[C@H](C)NC(=O)[C@H](CC(N)=O)NC(=O)[C@@H](NC(=O)[C@H](CCCCNC(=O)COCCOCCNC(=O)COCCOCCNC(=O)CC[C@H](NC(=O)CC[C@H](NC(=O)CCCCCCCCCCCCCCCCCCC(=O)O)C(=O)O)C(=O)O)NC(=O)[C@H](C)NC(=O)[C@H](CCC(N)=O)NC(=O)[C@H](CCC(=O)O)NC(=O)[C@H](CCCNC(=N)N)NC(=O)[C@H](C)NC(=O)[C@H](CCC(N)=O)NC(=O)[C@H](CCCNC(=N)N)NC(=O)[C@H](C)NC(=O)[C@H](CCCNC(=N)N)NC(=O)[C@H](C)NC(=O)[C@H](CCC(N)=O)NC(=O)[C@H](CCC(=O)O)NC(=O)[C@H](CC(C)C)NC(=O)[C@H](CC(C)C)NC(=O)[C@@H](NC(=O)[C@H](CCC(N)=O)NC(=O)[C@H](CC(C)C)NC(=O)[C@H](CC(C)C)NC(=O)CNC(=O)[C@@H](NC(=O)[C@@H]1CCCN1C(=O)[C@@H](NC(=O)[C@H](CC(=O)O)NC(=O)[C@H](CC(C)C)NC(=O)[C@H](CO)NC(=O)[C@H](CC(C)C)NC(=O)[C@@H](NC(=O)[C@@H](N)[C@@H](C)CC)C(C)C)C(C)C)[C@@H](C)CC)[C@@H](C)CC)[C@@H](C)O)[C@@H](C)CC)C(=O)N[C@@H](C)C(=O)N[C@@H](CCC(=O)O)C(=O)N[C@H](C(N)=O)C(C)C [compound 53] (H-IVLSLDVPIGLLQILLEQARARQAREQAK([AEEA-AEEA-γGlu-γGlu-C20 diacid])TNAEI[Nle]AEV-NH2) | – | – | – | – | 0.316 | 251 |
| CC[C@H](C)[C@H](N)C(=O)N[C@H](C(=O)N[C@@H](CC(C)C)C(=O)N[C@@H](CO)C(=O)N[C@@H](CC(C)C)C(=O)N[C@@H](CC(=O)O)C(=O)N[C@H](C(=O)N1C[C@H](O)C[C@H]1C(=O)N[C@H](C(=O)NCC(=O)N[C@@H](CC(C)C)C(=O)N[C@@H](CC(C)C)C(=O)N[C@@H](CCC(N)=O)C(=O)N[C@H](C(=O)N[C@@H](CC(C)C)C(=O)N[C@@H](CC(C)C)C(=O)N[C@@H](CCC(=O)O)C(=O)N[C@@H](CCC(N)=O)C(=O)N[C@@H](C)C(=O)N[C@@H](CCCNC(=N)N)C(=O)N[C@@H](C)C(=O)N[C@@H](CCCNC(=N)N)C(=O)N[C@H](C(=O)N[C@@H](C)C(=O)N[C@@H](CCCNC(=N)N)C(=O)N[C@@H](CCC(=O)O)C(=O)N[C@@H](CCC(N)=O)C(=O)N[C@@H](C)C(=O)N[C@@H](CCCCNC(=O)COCCOCCNC(=O)COCCOCCNC(=O)CC[C@H](NC(=O)CC[C@H](NC(=O)CCCCCCCCCCCCCCCCCCC(=O)O)C(=O)O)C(=O)O)C(=O)N[C@H](C(=O)N[C@@H](CC(N)=O)C(=O)N[C@@H](C)C(=O)N[C@@H](CCC(=O)O)C(=O)N[C@H](C(=O)N[C@@H](CC(C)C)C(=O)N[C@@H](C)C(=O)N[C@@H](CCC(=O)O)C(=O)N[C@H](C(N)=O)C(C)C)[C@@H](C)CC)[C@@H](C)O)C(C)C)[C@@H](C)CC)[C@@H](C)CC)C(C)C)C(C)C [compound 84] (H-IVLSLDV[Hyp]IGLLQILLEQARARVAREQAK([AEEA-AEEA-γGlu-γGlu-C20 diacid])TNAEILAEV-NH2) | – | – | – | – | 1 | 25.1 |

From patent EP4810052A2, “HCRHR2 SELECTIVE POLYPEPTIDES” (Gubra A/S, priority 2023, dated 2026)
